Measured values reported in patent US20160199326A1, “USE OF TRIFLUOROACETIC ACID AS KERATOLYTIC AGENT TO TREAT HYPERKERATOTIC SKIN LESIONS” (POLICHEM S.A., priority 2013, published 2016).

Key:
[1] = system: stratum corneum of hairless rats; assay: Exfoliating activity in vivo after topical application on the back of hairless rats, histological evaluation; set-up: species or system rat; details: ten hairless rats, 10% CaTFA gel topical two times a day for ten days
Description: The formulations used had the following composition: Medicated formulation (D) CaTFA 10.00 g, Xanthan gum 2.00 g, Water q.s. to 100.00 g. Vehicle (V): Xanthan gum 2.00 g, Water q.s. to 100.00 g.
The experiments were carried out on 4 weeks old hairless male rats (HsdHanTM:RNU—Foxnl rnu, Harlan Italy srl, Correzzana, Italy). The back of ten rats was divided in two parts (section area: 2.5×3.0 cm) for topical application of the test formulations. A volume of 200 μl of the medicated formulation or the vehicle was applied two times a day for ten days. Fifteen hours after the last administration, the animals were sacrificed by cervical dislocation and the portion of skin submitted to the treatment was excised, carefully rinsed to remove the remaining formulation and submitted to histological evaluation. A sample of untreated skin of each animal was used as control (C). The histological evaluation was done as follows: the skin samples were fixed in 10% buffered formalin solution, dehydrated and embedded in JB-4 plastic resin. Coronal sections were cut by a microtome (Reichert-Jung) and mounted onto gelatin coated slides. Sections were stained with methylene blue/toluidine blue for microscopic examination to verify the absence of stratum corneum and the condition of the other parts of the skin. The specimens were assessed under Leitz Diaplan microscope.

tumor growth = details: animal experimental models; cited from earlier work
solid tumor cells = details: in vitro; cited from earlier work
angiogenesis = details: cited from earlier work
[2] = known; cited from earlier work

| Structure (SMILES) | effective as keratolytic agent, share of treated animals [1] | tumor growth (tumor growth) | cytotoxic activity (solid tumor cells) | antiangiogenetic activity (angiogenesis) | toxicity [2] |
| --- | --- | --- | --- | --- | --- |
| O=C([O-])C(F)(F)F.O=C([O-])C(F)(F)F.[Ca+2] [Calcium trifluoroacetate] | 70% | inhibit tumor growth | in vitro cytotoxic activity on solid tumor cells | relevant antiangiogenetic activity |  |
| O=C([O-])C(F)(F)F.[Na+] [NaTFA, Sodium Trifluoroacetate] |  |  |  |  | devoid of significant toxicity |
